Source: patent US20240174603A1 (Rappta Therapeutics Oy, priority 2021, published 2024)

Key:
LNCaP cells = test: LNCaP cell viability assay (MTS); type: cell-based; details: Homo sapiens, LNCaP, 48 h, LNCaP cell line
Method in brief: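 LNCaP cells (5000/well) treated 24 h after plating with compound at 1–80 µM for 48 h. Relative cell number read by MTS; GI50 from four-parameter variable-slope log(inhibitor) fit with bottom constrained to zero.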

HCC1937 cells = test: HCC1937 cell viability assay (MTS); type: cell-based; details: Homo sapiens; HCC1937 cell line, 48 hours, MTS assay (footnote a)
Procedure: HCC1937 cells are plated in a 96 well plate format at a density of 10,000 cells per well. After incubation overnight, cells are treated with a compound (e.g., compound 263) at following concentrations: 80, 40, 20, 10, 5, 2.5, 1.25 μM. Compound concentrations are prepared in RPMI via serial dilutions from a starting stock of 80 mM. 48 hours after compound treatment, cell viability is assessed using the Promega CellTiter 96 aqueous one proliferation assay (Promega G3582, MTS assay) according to manufacturer's protocol.
The cell viability data was analyzed with GraphPad Prism software. The values were log transformed and analyzed with non-linear regression (curve-fit) using log(inhibitor) vs. response-variable slope (four parameters) and constraining the bottom to equal zero. Unless otherwise indicated, the GI50 values provided in Table 113 correspond to the LNCaP cell viability assays.

Row | SMILES | GI50 (LNCaP cells) [µM] | GI50 (HCC1937 cells) [µM]
1 | CN(C)CC(NS(=O)(=O)c1ccc(Oc2ccccc2C(F)(F)F)cc1)c1ccc(Cl)c(Cl)c1 (stereo not shown) [Compound 238, N-(1-(3,4-dichlorophenyl)-2-(dimethylamino)ethyl)-4-(2-(trifluoromethyl)phenoxy)benzenesulfonamide] | 21.9 | 
2 | CN(C)CC(NS(=O)(=O)c1ccc(C2CCCCO2)cc1)c1ccc(Cl)c(Cl)c1 (stereo not shown) [Compound 239, N-(1-(3,4-dichlorophenyl)-2-(dimethylamino)ethyl)-4-(tetrahydro-2H-pyran-2-yl)benzenesulfonamide] | 28.2 | 
3 | CN(C)CC(NS(=O)(=O)c1ccc(OC(F)(F)F)c(C#N)c1)c1ccc(Cl)c(Cl)c1 (stereo not shown) [Compound 240, 3-cyano-N-(1-(3,4-dichlorophenyl)-2-(dimethylamino)ethyl)-4-(trifluoromethoxy)benzenesulfonamide] | 24.6 | 
4 | CCCOC1CCN(CC(NS(=O)(=O)c2ccc(OC(F)(F)F)cc2)c2ccc(Cl)c(Cl)c2)CC1 (stereo not shown) [Compound 241, N-(1-(3,4-dichlorophenyl)-2-(4-propoxypiperidin-1-yl)ethyl)-4-(trifluoromethoxy)benzenesulfonamide] | 31.9 | 
5 | CNCC(NS(=O)(=O)c1ccc(OC(F)(F)F)cc1)c1ccc(Cl)c(Cl)c1 (stereo not shown) [Compound 242, N-(1-(3,4-dichlorophenyl)-2-(methylamino)ethyl)-4-(trifluoromethoxy)benzenesulfonamide] | 24.1 | 
6 | O=S(=O)(NCC1(c2ccc(Cl)c(Cl)c2)CCCC1)c1ccc(OC(F)(F)F)cc1 [Compound 243, N-((1-(3,4-dichlorophenyl)cyclopentyl)methyl)-4-(trifluoromethoxy)benzenesulfonamide] | 51.7 | 
7 | O=S(=O)(NCC1(c2ccc(Cl)cc2)CCCC1)c1ccc(OC(F)(F)F)cc1 [Compound 244, N-((1-(4-chlorophenyl)cyclopentyl)methyl)-4-(trifluoromethoxy)benzenesulfonamide] | 56.1 | 
8 | CC(C)(NS(=O)(=O)c1ccc(OC(F)(F)F)cc1)C1(c2ccc(Cl)c(Cl)c2)CC1 [Compound 245, N-(2-(1-(3,4-dichlorophenyl)cyclopropyl)propan-2-yl)-4-(trifluoromethoxy)benzenesulfonamide] | 45.2 | 
9 | CN(C)C[C@@H](Cc1ccc(Cl)c(Cl)c1)NS(=O)(=O)c1ccc(OC(F)(F)F)cc1 [Compound 246, (R)—N-(1-(3,4-dichlorophenyl)-3-(dimethylamino)propan-2-yl)-4-(trifluoromethoxy)benzenesulfonamide] | 23.8 | 
10 | CN(C)C[C@H](Cc1ccc(Cl)c(Cl)c1)NS(=O)(=O)c1ccc(OC(F)(F)F)cc1 [Compound 247, (S)—N-(1-(3,4-dichlorophenyl)-3-(dimethylamino)propan-2-yl)-4-(trifluoromethoxy)benzenesulfonamide] | 22.8 | 
11 | CN(C)CC(NS(=O)(=O)c1ccc(OC2CCC2)cc1)c1ccc(Cl)c(Cl)c1 (stereo not shown) [Compound 248, 4-cyclobutoxy-N-(1-(3,4-dichlorophenyl)-2-(dimethylamino)ethyl)benzenesulfonamide] | 16.4 | 
12 | CN(C)C(=O)[C@H](Cc1ccc(Cl)c(Cl)c1)NS(=O)(=O)c1ccc(OC(F)(F)F)cc1 [Compound 249, (S)-3-(3,4-dichlorophenyl)-N,N-dimethyl-2-((4-(trifluoromethoxy)phenyl)sulfonamido)propenamide] | 65.3 | 
13 | CN(C)CC(c1ccc(Cl)c(Cl)c1)N(C)S(=O)(=O)c1ccc(OC(F)(F)F)cc1 (stereo not shown) [Compound 250, N-(1-(3,4-dichlorophenyl)-2-(dimethylamino)ethyl)-N-methyl-4-(trifluoromethoxy)benzenesulfonamide] | 39.6 | 
14 | CN(C)CC(NS(=O)(=O)c1ccc(NC2CCCC2)cc1)c1ccc(Cl)c(Cl)c1 (stereo not shown) [Compound 251, 4-(cyclopentylamino)-N-(1-(3,4-dichlorophenyl)-2-(dimethylamino)ethyl)benzenesulfonamide] | 22.4 | 
15 | CN(C)CC(NS(=O)(=O)c1ccc(NC2CCC2)cc1)c1ccc(Cl)c(Cl)c1 (stereo not shown) [Compound 252, 4-(cyclobutylamino)-N-(1-(3,4-dichlorophenyl)-2-(dimethylamino)ethyl)benzenesulfonamide] | 22.8 | 
16 | O=S(=O)(NCC1(c2ccc(Cl)c(Cl)c2)CCNC1)c1ccc(OC(F)(F)F)cc1 (stereo not shown) [Compound 253, N-((3-(3,4-dichlorophenyl)pyrrolidin-3-yl)methyl)-4-(trifluoromethoxy)benzenesulfonamide] | 10.7 | 

Row | SMILES | GI50 (LNCaP cells) [µM] | GI50 (HCC1937 cells) [µM]
17 | CC(CN(C)C)NS(=O)(=O)c1ccc(OC(F)(F)F)c([N+](=O)[O-])c1 (stereo not shown) [Compound 254, N-(1-(dimethylamino)propan-2-yl)-3-nitro-4-(trifluoromethoxy)benzenesulfonamide] | 1.92 | 
18 | CN(C)C(=O)C(NS(=O)(=O)c1ccc(OC(F)(F)F)cc1)c1ccc(Cl)c(Cl)c1 (stereo not shown) [Compound 255, 2-(3,4-dichlorophenyl)-N,N-dimethyl-2-((4-(trifluoromethoxy)phenyl)sulfonamido)acetamide] | 38.5 | 
19 | COc1ccc(CNCC(NS(=O)(=O)c2ccc(OC(F)(F)F)cc2)c2ccc(Cl)c(Cl)c2)cc1 (stereo not shown) [Compound 256, N-(1-(3,4-dichlorophenyl)-2-((4-methoxybenzyl)amino)ethyl)-4-(trifluoromethoxy)benzenesulfonamide] | 34 | 
20 | O=S(=O)(NC(CN1CCNCC1)c1ccc(Cl)cc1)c1ccc(OC(F)(F)F)cc1 (stereo not shown) [Compound 257, N-(1-(4-chlorophenyl)-2-(piperazin-1-yl)ethyl)-4-(trifluoromethoxy)benzenesulfonamide] | 11.6 | 
21 | O=S(=O)(NC(CN1CCNCC1)c1ccc(Cl)c(F)c1)c1ccc(OC(F)(F)F)cc1 (stereo not shown) [Compound 258, N-(1-(4-chloro-3-fluorophenyl)-2-(piperazin-1-yl)ethyl)-4-(trifluoromethoxy)benzenesulfonamide] | 11.3 | 
22 | O=S(=O)(NC(CN1CCNCC1)c1ccc(Cl)cc1)c1ccc(OC(F)(F)F)nc1 (stereo not shown) [Compound 259, N-(1-(4-chlorophenyl)-2-(piperazin-1-yl)ethyl)-6-(trifluoromethoxy)pyridine-3-sulfonamide] | 48.8 | 
23 | O=S(=O)(NCC1(c2ccccc2)CCNCC1)c1ccc(OC(F)(F)F)cc1 [Compound 260, N-((4-phenylpiperidin-4-yl)methyl)-4-(trifluoromethoxy)benzenesulfonamide] | 33.6 | 
24 | O=S(=O)(NCC1(c2cccc(C(F)(F)F)c2)CCCC1)c1ccc(OC(F)(F)F)cc1 [Compound 262, 4-(trifluoromethoxy)-N-((1-(3-(trifluoromethyl)phenyl)cyclopentyl)methyl)benzenesulfonamide] | 63.1 | 
25 | O=S(=O)(NCC1(c2ccccc2)CCCN1)c1ccc(OC(F)(F)F)cc1 (stereo not shown) [Compound 263, N-((2-phenylpyrrolidin-2-yl)methyl)-4-(trifluoromethoxy)benzenesulfonamide] |  | 75.7
26 | O=S(=O)(NC(CN1CCNCC1)c1ccc(F)cc1)c1ccc(OC(F)(F)F)cc1 (stereo not shown) [Compound 264, N-(1-(4-fluorophenyl)-2-(piperazin-1-yl)ethyl)-4-(trifluoromethoxy)benzenesulfonamide] | 43.1 | 
27 | O=S(=O)(NC[C@H](c1ccc(F)cc1)N1CCNCC1)c1ccc(OC(F)(F)F)cc1 [Compound 265, (S)—N-(2-(4-fluorophenyl)-2-(piperazin-1-yl)ethyl)-4-(trifluoromethoxy)benzenesulfonamide] | 40.3 | 
28 | CN(C)CC(NS(=O)(=O)c1ccc(C(F)(F)F)c([N+](=O)[O-])c1)c1ccc(Cl)c(Cl)c1 (stereo not shown) [Compound 266, N-(1-(3,4-dichlorophenyl)-2-(dimethylamino)ethyl)-3-nitro-4-(trifluoromethyl)benzenesulfonamide] | 41.9 | 
29 | CCCOc1ccc(S(=O)(=O)NC(CN(C)C)c2ccc(Cl)c(Cl)c2)cc1 (stereo not shown) [Compound 267, N-(1-(3,4-dichlorophenyl)-2-(dimethylamino)ethyl)-4-propoxybenzenesulfonamide] | 23.8 | 
30 | CN(C)CC(NS(=O)(=O)c1ccc(NC2CCCCC2)cc1)c1ccc(Cl)c(Cl)c1 (stereo not shown) [Compound 268, 4-(cyclohexylamino)-N-(1-(3,4-dichlorophenyl)-2-(dimethylamino)ethyl)benzenesulfonamide] | 15.5 | 
31 | CN1CCN(CC(NS(=O)(=O)c2ccc(Oc3ccc(F)cc3)cc2)c2ccc(Cl)c(Cl)c2)CC1 (stereo not shown) [Compound 269, N-(1-(3,4-dichlorophenyl)-2-(4-methylpiperazin-1-yl)ethyl)-4-(4-fluorophenoxy)benzenesulfonamide] | 15 | 
